{
  "source": "patent US8716312B2",
  "about": "“Inhibitors of diacylglycerol acyltransferase” (Merck Sharp & Dohme Corporation, priority 2008, dated 2014)",
  "data": [
    {"target": "T1, human DGAT1 enzyme (Homo sapiens, UniProt O75907)", "T1 sequence (O75907 1-488)": "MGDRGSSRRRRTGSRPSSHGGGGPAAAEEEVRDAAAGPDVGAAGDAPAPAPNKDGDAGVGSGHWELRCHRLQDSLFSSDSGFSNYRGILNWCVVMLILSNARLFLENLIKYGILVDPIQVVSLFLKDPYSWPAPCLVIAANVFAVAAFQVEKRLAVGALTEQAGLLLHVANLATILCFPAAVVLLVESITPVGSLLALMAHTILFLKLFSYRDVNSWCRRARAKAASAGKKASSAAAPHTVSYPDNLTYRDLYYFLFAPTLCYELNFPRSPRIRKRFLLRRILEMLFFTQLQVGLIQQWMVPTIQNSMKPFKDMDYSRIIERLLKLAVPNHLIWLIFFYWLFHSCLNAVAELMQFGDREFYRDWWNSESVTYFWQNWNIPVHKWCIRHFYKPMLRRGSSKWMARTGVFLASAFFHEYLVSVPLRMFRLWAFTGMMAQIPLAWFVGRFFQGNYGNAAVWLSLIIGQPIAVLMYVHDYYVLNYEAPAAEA", "assay": "in vitro DGAT1 inhibition assay (microsomes, [14C]-palmitoyl-CoA, SPA beads)", "units": {"IC50": "nM"}, "method": "The in vitro assay to identify DGAT1 inhibitors uses human DGAT1 enzyme expressed in Sf9 insect cells prepared as microsomes. The reaction is initiated by the addition of the combined substrates 1,2-dioleoyl-sn-glycerol and [^14C]-palmitoyl-Co A and incubated with test compounds and microsomal membranes for 2 hours at room temperature. The assay is stopped by adding 0.5 mg wheat germ agglutinin beads in assay buffer with 1% Brij-35 and 1% 3-cholamidopropyldimethyl-ammonio-1-propane sulfonate. Plates are sealed with TopSeal and incubated for 18 hours to allow the radioactive triglyceride product to come into proximity with the bead. Plates are read on a TopCount instrument.\nPercent inhibition was calculated as the percent of (test compound inhibition minus non-specific binding) relative to (total binding minus non-specific binding). IC50 values were determined by curve fitting the data to a Sigmoidal dose-response in GraphPad Prism utilizing the following equation: Y=A+(B−A)/(1+10^((Log IC50−X))), where A and B are the bottom and top of the curve (highest and lowest inhibition), respectively, and X is the logarithm of concentration.", "values": [
      {"compound": "CC1CCCN(c2nc(C(F)(F)F)c(C(=O)Nc3ccc(N4CCN(c5ccccc5F)CC4)nc3)o2)C1", "note": "(centres unmarked) [Compound 164, N-(6-(4-(2-fluorophenyl)piperazin-1-yl)pyridin-3-yl)-2-(3-methylpiperidin-1-yl)-4-(trifluoromethyl)oxazole-5-carboxamide]", "IC50": "11 to 100"},
      {"compound": "O=C(Nc1ccc(N2CCN(C(=O)C3Cc4ccccc4N3)CC2)nc1)c1oc(N2CCC(c3ccccc3)CC2)nc1C(F)(F)F", "note": "(centres unmarked) [Compound 240, N-(6-(4-(indoline-2-carbonyl)piperazin-1-yl)pyridin-3-yl)-2-(4-phenylpiperidin-1-yl)-4-(trifluoromethyl)oxazole-5-carboxamide]", "IC50": "101 to 500"},
      {"compound": "O=C(Nc1ccc(N2CCN(C(=O)Nc3ccccc3F)C(=O)C2)nc1)c1oc(N2CCC(c3ccccc3)CC2)nc1C(F)(F)F", "note": "[Compound 248, N-(6-(4-(2-fluorophenylcarbamoyl)-3-oxopiperazin-1-yl)pyridin-3-yl)-2-(4-phenylpiperidin-1-yl)-4-(trifluoromethyl)oxazole-5-carboxamide]", "IC50": "101 to 500"},
      {"compound": "CC1CCCN(c2nc(C(F)(F)F)c(C(=O)Nc3ccc(N4CCN(c5ccccn5)CC4)nc3)o2)C1", "note": "(centres unmarked) [Compound 169, 2-(3-methylpiperidin-1-yl)-N-(6-(4-(pyridin-2-yl)piperazin-1-yl)pyridin-3-yl)-4-(trifluoromethyl)oxazole-5-carboxamide]", "IC50": "11 to 100"},
      {"compound": "CC1CCCN(c2nc(C(F)(F)F)c(C(=O)Nc3ccc(N4CCc5c(cccc5Nc5ccccc5F)C4)nc3)o2)C1", "note": "(centres unmarked) [Compound 174, N-(6-(5-(2-fluorophenylamino)-3,4-dihydroisoquinolin-2(1H)-yl)pyridin-3-yl)-2-(3-methylpiperidin-1-yl)-4-(trifluoromethyl)oxazole-5-carboxamide]", "IC50": "101 to 500"},
      {"compound": "CC1CCCN(c2nc(C(F)(F)F)c(C(=O)Nc3ccc(N4CCC(OCc5ccccc5C(=O)O)CC4)nc3)o2)C1", "note": "(centres unmarked) [Compound 255, 2-((1-(5-(2-(3-methylpiperidin-1-yl)-4-(trifluoromethyl)oxazole-5-carboxamido)pyridin-2-yl)piperidin-4-yloxy)methyl)benzoic acid]", "IC50": "11 to 100"},
      {"compound": "O=C(O)c1cccc(COC2CCN(c3ccc(NC(=O)c4oc(N5CCC(c6ccccc6)CC5)nc4C(F)(F)F)cn3)CC2)c1", "note": "[Compound 256, 3-((1-(5-(2-(4-phenylpiperidin-1-yl)-4-(trifluoromethyl)oxazole-5-carboxamido)pyridin-2-yl)piperidin-4-yloxy)methyl)benzoic acid]", "IC50": "11 to 100"},
      {"compound": "CC1CCCN(c2nc(C(F)(F)F)c(C(=O)Nc3ccc(N4CCCN(C(=O)c5cccc(C(=O)O)c5)CC4)nc3)o2)C1", "note": "(centres unmarked) [Compound 190, 3-(4-(5-(2-(3-methylpiperidin-1-yl)-4-(trifluoromethyl)oxazole-5-carboxamido)pyridin-2-yl)-1,4-diazepane-1-carbonyl)benzoic acid]", "IC50": "101 to 500"},
      {"compound": "O=C(Nc1ccc(N2CCN(C(=O)C3NCCc4ccccc43)CC2)nc1)c1oc(N2CCC(c3ccccc3)CC2)nc1C(F)(F)F", "note": "(centres unmarked) [Compound 242, 2-(4-phenylpiperidin-1-yl)-N-(6-(4-(1,2,3,4-tetrahydroisoquinoline-1-carbonyl)piperazin-1-yl)pyridin-3-yl)-4-(trifluoromethyl)oxazole-5-carboxamide]", "IC50": "101 to 500"},
      {"compound": "CC1CCCN(c2nc(C(F)(F)F)c(C(=O)Nc3ccc(N4CCN(C(=O)C(O)C(F)(F)F)CC4)nc3)o2)C1", "note": "(centres unmarked) [Compound 194, 2-(3-methylpiperidin-1-yl)-N-(6-(4-(3,3,3-trifluoro-2-hydroxypropanoyl)piperazin-1-yl)pyridin-3-yl)-4-(trifluoromethyl)oxazole-5-carboxamide]", "IC50": "11 to 100"},
      {"compound": "CC1CCCN(c2nc(C(F)(F)F)c(C(=O)Nc3ccc(N4CCN(C(=O)[C@H](O)c5ccccc5)CC4)nc3)o2)C1", "note": "(stereo partly drawn) [Compound 198, N-(6-(4-((R)-2-hydroxy-2-phenylacetyl)piperazin-1-yl)pyridin-3-yl)-2-(3-methylpiperidin-1-yl)-4-(trifluoromethyl)oxazole-5-carboxamide]", "IC50": "11 to 100"},
      {"compound": "O=C(O)c1ccccc1OCC1CCN(c2ccc(NC(=O)c3oc(N4CCC(c5ccccc5)CC4)nc3C(F)(F)F)cn2)CC1", "note": "[Compound 266, 2-((1-(5-(2-(4-phenylpiperidin-1-yl)-4-(trifluoromethyl)oxazole-5-carboxamido)pyridin-2-yl)piperidin-4-yl)methoxy)benzoic acid]", "IC50": "101 to 500"},
      {"compound": "O=C(O)c1ccc(F)c(OCC2CCN(c3ccc(NC(=O)c4oc(N5CCC(c6ccccc6)CC5)nc4C(F)(F)F)cn3)CC2)c1", "note": "[Compound 268, 4-fluoro-3-((1-(5-(2-(4-phenylpiperidin-1-yl)-4-(trifluoromethyl)oxazole-5-carboxamido)pyridin-2-yl)piperidin-4-yl)methoxy)benzoic acid]", "IC50": "11 to 100"},
      {"compound": "O=C(O)c1cccc(OCC2CCN(c3ccc(NC(=O)c4oc(N5CCC(c6ccccc6)CC5)nc4C(F)(F)F)cn3)CC2)c1", "note": "[Compound 264, 3-((1-(5-(2-(4-phenylpiperidin-1-yl)-4-(trifluoromethyl)oxazole-5-carboxamido)pyridin-2-yl)piperidin-4-yl)methoxy)benzoic acid]", "IC50": "11 to 100"},
      {"compound": "O=C(Nc1ccc(N2CCCN(C(=O)C(O)c3cc(F)cc(F)c3)CC2)nc1)c1oc(N2CCC(c3ccccc3)CC2)nc1C(F)(F)F", "note": "(centres unmarked) [Compound 202, N-(6-(4-(2-(3,5-difluorophenyl)-2-hydroxyacetyl)-1,4-diazepan-1-yl)pyridin-3-yl)-2-(4-phenylpiperidin-1-yl)-4-(trifluoromethyl)oxazole-5-carboxamide]", "IC50": "11 to 100"},
      {"compound": "O=C(Nc1ccc(N2CCN(C(=O)Cc3ccccc3O)CC2)nc1)c1oc(N2CCC(c3ccccc3)CC2)nc1C(F)(F)F", "note": "[Compound 226, N-(6-(4-(2-(2-hydroxyphenyl)acetyl)piperazin-1-yl)pyridin-3-yl)-2-(4-phenylpiperidin-1-yl)-4-(trifluoromethyl)oxazole-5-carboxamide]", "IC50": "101 to 500"},
      {"compound": "Cc1ccccc1NC(=O)c1ccc2c(c1)Cc1cc(NC(=O)c3oc(N4CCCC(C)C4)nc3C(F)(F)F)ccc1-2", "note": "(centres unmarked) [Compound 235, 2-(3-methylpiperidin-1-yl)-N-(7-(o-tolylcarbamoyl)-9H-fluoren-2-yl)-4-(trifluoromethyl)oxazole-5-carboxamide]", "IC50": "101 to 500"},
      {"compound": "O=C(Nc1ccc(N2CCN(C(=O)C(O)C(F)(F)F)CC2)nc1)c1oc(N2CCC(c3cccc(Cl)c3)C2)nc1C(F)(F)F", "note": "(centres unmarked) [Compound 212, 2-(3-(3-chlorophenyl)pyrrolidin-1-yl)-N-(6-(4-(3,3,3-trifluoro-2-hydroxypropanoyl)piperazin-1-yl)pyridin-3-yl)-4-(trifluoromethyl)oxazole-5-carboxamide]", "IC50": "11 to 100"},
      {"compound": "Cc1cccc(Cl)c1NC(=O)N1CCCN(c2ccc(NC(=O)c3oc(N4CCCC(C)C4)nc3C(F)(F)F)cn2)CC1", "note": "(centres unmarked) [Compound 215, N-(2-chloro-6-methylphenyl)hexahydro-4-[5-[[[2-(3-methyl-1-piperidinyl)-4-(trifluoromethyl)-5-oxazolyl]carbonyl]amino]-2-pyridinyl]-1H-1,4-diazepine-1-carboxamide]", "IC50": "11 to 100"},
      {"compound": "CCOC(=O)c1nnc2n1CCN(c1ccc(NC(=O)c3oc(N4CCC(c5ccccc5)CC4)nc3C(F)(F)F)cn1)C2", "note": "[Compound 216, Ethyl 5,6,7,8-tetrahydro-7-[5-[[[2-(4-phenyl-1-piperidinyl)-4-(trifluoromethyl)-5-oxazolyl]carbonyl]amino]-2-pyridinyl]-1,2,4-triazolo[4,3-a]pyrazine-3-carboxylate]", "IC50": "101 to 500"},
      {"compound": "CC1CCCN(c2nc(C(F)(F)F)c(C(=O)Nc3ccc(N4CCCN(C(=O)C(O)C(F)(F)F)CC4)nc3)o2)C1", "note": "(centres unmarked) [Compound 191, 2-(3-methylpiperidin-1-yl)-N-(6-(4-(3,3,3-trifluoro-2-hydroxypropanoyl)-1,4-diazepan-1-yl)pyridin-3-yl)-4-(trifluoromethyl)oxazole-5-carboxamide]", "IC50": "101 to 500"},
      {"compound": "O=C(Nc1ccc(N2CCN(C(=S)Nc3ccccc3F)CC2)nc1)c1oc(N2CCC(c3ccccc3)CC2)nc1C(F)(F)F", "note": "[Compound 181, N-(6-(4-(2-fluorophenylcarbamothioyl)piperazin-1-yl)pyridin-3-yl)-2-(4-phenylpiperidin-1-yl)-4-(trifluoromethyl)oxazole-5-carboxamide]", "IC50": "11 to 100"},
      {"compound": "CC1CCCN(c2nc(C(F)(F)F)c(C(=O)Nc3ccc(N4CCN(C(=O)[C@H](O)C5CCCCC5)CC4)nc3)o2)C1", "note": "(stereo partly drawn) [Compound 196, N-(6-(4-((R)-2-cyclohexyl-2-hydroxyacetyl)piperazin-1-yl)pyridin-3-yl)-2-(3-methylpiperidin-1-yl)-4-(trifluoromethyl)oxazole-5-carboxamide]", "IC50": "11 to 100"},
      {"compound": "O=C(Nc1ccc(N2CCN(C(=O)[C@H](O)c3ccccc3)CC2)nc1)c1oc(N2CCC(c3cccc(Cl)c3)C2)nc1C(F)(F)F", "note": "(stereo partly drawn) [Compound 207, 2-(3-(3-chlorophenyl)pyrrolidin-1-yl)-N-(6-(4-((R)-2-hydroxy-2-phenylacetyl)piperazin-1-yl)pyridin-3-yl)-4-(trifluoromethyl)oxazole-5-carboxamide]", "IC50": "11 to 100"},
      {"compound": "O=C(Nc1ccc(N2CCN(c3nc4ccccc4o3)CC2)nc1)c1oc(N2CCC(c3ccccc3)CC2)nc1C(F)(F)F", "note": "[Compound 236]", "IC50": "101 to 500"},
      {"compound": "CC1CCCN(c2nc(C(F)(F)F)c(C(=O)Nc3ccc(N4CCc5c(cccc5C(=O)O)C4)nc3)o2)C1", "note": "(centres unmarked) [Compound 168, 2-(5-(2-(3-methylpiperidin-1-yl)-4-(trifluoromethyl)oxazole-5-carboxamido)pyridin-2-yl)-1,2,3,4-tetrahydroisoquinoline-5-carboxylic acid]", "IC50": "101 to 500"}
    ]}
  ]
}
